Laboratory results as given in patent US20240148714A1, “Triple Negative Breast Cancer Treatment Method” (Exelixis, Inc., priority 2016, published 2024).
“Also recorded” adds a separate entry of the source.

System: circulating mononuclear cells
Assay: Circulating cell biomarkers by flow cytometry in serial blood samples
Type: in vivo, human
Procedure: Experimental design: In this single-arm, two-stage phase 2 study, patients with metastatic TNBC with measurable disease by RECIST and up to 3 lines of prior chemotherapy for metastatic disease received cabozantinib 60 mg daily on a 21-day cycle. Patients were restaged 6 weeks following treatment initiation and every 9 weeks thereafter. The primary endpoint was objective response rate (ORR). Predefined secondary endpoints included progression free survival (PFS) and toxicity. Here, we examined cellular biomarkers using flow cytometry in serial blood samples collected at days 0 (baseline/pre-treatment), 8, 22, 43, and 64 of cabozantinib treatment. Mixed effect models were used to evaluate the changes of biomarker levels over time from baseline to day 64. Wilcoxon signed rank test were used to evaluate whether the change of biomarker levels from baseline to day 8 were different by clinical benefit. Adjusted p-values controlling false discovery rate were used to adjust for multiple comparisons.
The primary endpoint was the activity of cabozantinib, as defined by objective response rate (ORR) in patients with mTNBC. Predefined secondary endpoints included progression-free survival (PFS), toxicity, and pain. Correlative studies included analysis of MET and phospho-MET expression in archival tumor tissue, and molecular and cellular biomarkers of cabozantinib. Cellular biomarkers were examined using flow cytometry in serial blood samples collected at days 0 (baseline/pre-treatment), 8, 22, 43, and 64 of cabozantinib treatment. Mixed effect models were used to evaluate the changes of biomarker levels over time from baseline to day 64. Wilcoxon signed rank test were used to evaluate whether the change of biomarker levels from baseline to day 8 were different by clinical benefit. Adjusted p-values controlling false discovery rate were used to adjust for multiple comparisons.
Circulating Biomarker Assays: Potential biomarkers of cabozantinib activity were identified by measuring plasma proteins at baseline, on day 8 of therapy, on day 1 of each cycle of therapy, and, if available, at the time of progression. Eight milliliters of blood was collected in purple top (plasma EDTA) vacutainers and shipped on wet ice to a Clinical Laboratory Improvement Amendments-certified core in the Steele Laboratories (Massachusetts General Hospital), where whole blood was separated by centrifugation into cellular fraction and plasma. The fraction of stem/progenitor cell, lymphocyte, and myeloid populations of total circulating mononuclear cells were counted by flow cytometry using a LSR-II cytometer and FACSDiva software in fresh blood samples using the following markers: CD3, CD4, CD8, CD14, CD25, CD34, CD45, CD56, CD127, and CD133 (Becton Dickinson, Franklin Lakes, NJ, www.bd.com). Plasma was prepared in the standard fashion and stored at −78° C. until collection and analysis of all samples. The biomarkers measured included VEGF, placental growth factor (PlGF), VEGF-C, VEGF-D, soluble VEGFR1 (sVEGFR1), basic fibroblast growth factor (bFGF), and sTie-2 (using a 7-plex Growth Factor array) and granulocyte-macrophage colony stimulating factor (GM-CSF), interferon gamma (IFN-g), tumor necrosis factor alpha (TNF-a), and interleukin-1beta (IL-1b), IL-2, IL-6, IL-8, IL-10, and IL-12 heterodimer p70 (using a 9-plex Inflammatory Factor array; both Meso Scale Discovery, Gaithersburg, MD, www.mesoscale.com); and HGF, sMET, carbonic anhydrase IX (CAIX), stromal cell-derived factor 1 a (SDF1a), and sVEGFR2 by single analyte enzyme-linked immunosorbent assay (R&D Systems, Minneapolis, MN, www.rndsystems.com).
Descriptive statistics were used to summarize biomarker values at protocol-specific time points. […] The Wilcoxon signed rank test assessed biomarker change from day 1 to 8. Mixed effects linear models assessed the change in biomarker values at days 1, 8, 22, 43, and 64; values beyond day 64 were not analyzed because of the small number of patients still on protocol. […]

[1] = after cabozantinib, baseline to day 64

For COc1cc2nccc(Oc3ccc(NC(=O)C4(C(=O)Nc5ccc(F)cc5)CC4)cc3)c2cc1OC [cabozantinib], which “CD3+ (lymphocytes), Median” value (Day 1 (baseline)) is on record?
The value was 34.73 % of WBC.

What about the “CD3 + CD8 − CD4 + CD25+, Median” value (Day 1 (baseline)) of the same compound?
Its value is 0.66 % of WBC.

And the “CD3 + CD8 − CD4 + CD25−, Median” value (Day 1 (baseline))?
The value was 11.41 % of WBC.

And the “CD3 + CD8 − CD4+, Median” value (Day 1 (baseline))?
Its value is 0.15 % of WBC.

What about the “CD3 + CD56+ (NKT cells), Median” value (Day 1 (baseline)) of the same compound?
Its value is 0.77 % of WBC.

What about the “CD3 − CD56+ (NK cells), Median” value (Day 1 (baseline)) of the same compound?
Its value is 5.84 % of WBC.

What about the “CD14+ (monocytes), Median” value (Day 1 (baseline)) of the same compound?
Its value is 42.20 % of WBC.

What about the “CD34 + CD133+ cells, Median” value (Day 1 (baseline)) of the same compound?
The value was 0.17 % of WBC.

What about the “CD3+ (lymphocytes), Median” value (Day 8) of the same compound?
Its value is 24.06 % of WBC.

And the “CD3 + CD8 − CD4 + CD25+, Median” value (Day 8)?
Its value is 0.79 % of WBC.

What about the “CD3 + CD8 − CD4 + CD25−, Median” value (Day 8) of the same compound?
The value was 14.18 % of WBC.

And the “CD3 + CD8 − CD4+, Median” value (Day 8)?
Its value is 0.17 % of WBC.

What about the “CD3 + CD56+ (NKT cells), Median” value (Day 8) of the same compound?
Its value is 0.85 % of WBC.

And the “CD3 − CD56+ (NK cells), Median” value (Day 8)?
Its value is 7.27 % of WBC.

And the “CD14+ (monocytes), Median” value (Day 8)?
Its value is 31.44 % of WBC.

What about the “CD34 + CD133+ cells, Median” value (Day 8) of the same compound?
Its value is 0.11 % of WBC.

What about the “CD3+ (lymphocytes), Median” value (Day 22) of the same compound?
The value was 33.56 % of WBC.

What about the “CD3 + CD8 − CD4 + CD25+, Median” value (Day 22) of the same compound?
The value was 0.59 % of WBC.

And the “CD3 + CD8 − CD4 + CD25−, Median” value (Day 22)?
The value was 16.41 % of WBC.

And the “CD3 + CD8 − CD4+, Median” value (Day 22)?
Its value is 0.18 % of WBC.

What about the “CD3 + CD56+ (NKT cells), Median” value (Day 22) of the same compound?
The value was 0.54 % of WBC.

What about the “CD3 − CD56+ (NK cells), Median” value (Day 22) of the same compound?
Its value is 8.51 % of WBC.

What about the “CD14+ (monocytes), Median” value (Day 22) of the same compound?
The value was 19.03 % of WBC.

What about the “CD34 + CD133+ cells, Median” value (Day 22) of the same compound?
Its value is 0.12 % of WBC.

What about the “CD3+ (lymphocytes), Median” value (Day 43) of the same compound?
Its value is 32.79 % of WBC.

And the “CD3 + CD8 − CD4 + CD25+, Median” value (Day 43)?
The value was 0.73 % of WBC.

What about the “CD3 + CD8 − CD4 + CD25−, Median” value (Day 43) of the same compound?
The value was 17.71 % of WBC.

And the “CD3 + CD8 − CD4+, Median” value (Day 43)?
Its value is 0.19 % of WBC.

What about the “CD3 + CD56+ (NKT cells), Median” value (Day 43) of the same compound?
Its value is 1.02 % of WBC.

What about the “CD3 − CD56+ (NK cells), Median” value (Day 43) of the same compound?
The value was 6.50 % of WBC.

What about the “CD14+ (monocytes), Median” value (Day 43) of the same compound?
Its value is 24.79 % of WBC.

What about the “CD34 + CD133+ cells, Median” value (Day 43) of the same compound?
Its value is 0.18 % of WBC.

What about the “CD3+ (lymphocytes), Median” value (Day 64) of the same compound?
Its value is 30.99 % of WBC.

What about the “CD3 + CD8 − CD4 + CD25+, Median” value (Day 64) of the same compound?
The value was 0.61 % of WBC.

What about the “CD3 + CD8 − CD4 + CD25−, Median” value (Day 64) of the same compound?
The value was 15.29 % of WBC.

And the “CD3 + CD8 − CD4+, Median” value (Day 64)?
The value was 0.19 % of WBC.

And the “CD3 + CD56+ (NKT cells), Median” value (Day 64)?
The value was 0.98 % of WBC.

And the “CD3 − CD56+ (NK cells), Median” value (Day 64)?
The value was 8.13 % of WBC.

And the “CD14+ (monocytes), Median” value (Day 64)?
Its value is 23.48 % of WBC.

And the “CD34 + CD133+ cells, Median” value (Day 64)?
Its value is 0.11 % of WBC.

What about the “change in CD4+ cells (CD3+CD4+CD8− T)” value [1] of the same compound?
Its value is “trend for increase; also recorded: nonsignificant trend toward increase”.

What about the “change in CD14+ monocytes” value [1] of the same compound?
The value was “persistent decrease”.

And the “change in CD56+ NK cells (CD3−CD56+ NK lymphocytes)” value [1]?
The value was “trend for increase; also recorded: nonsignificant trend toward increase”.

What about the “change in circulating CD3+ cells” value [1] of the same compound?
Its value is “significant increase; also recorded: persistent increase”.

And the “change in circulating CD8+ T cells (CD3+CD4−CD8+ T lymphocytes)” value [1]?
Its value is “significant increase”.

And the “change in fraction of CD3+CD56+ NKT cells” value (baseline to day 64)?
Its value is “no significant changes”.

What about the “change in fraction of CD4+CD25+ Tregs” value (baseline to day 64) of the same compound?
Its value is “no significant changes”.

What about the “change in fraction of CD4+CD127+ memory T cells” value (baseline to day 64) of the same compound?
The value was “no significant changes”.

What about the “change in fraction of CD133+ progenitor/stem cells” value (baseline to day 64) of the same compound?
Its value is “no significant changes”.

What about the “effect on circulating cell biomarkers (summary)” value (metastatic TNBC patients) of the same compound?
The value was “systemic changes consistent with activation of the immune system”.
